Experiment [1] relates to Pdk1/Akt/Foxo1. Put plainly: Western blot of Pdk1/Akt/Foxo1 in AML-12 cells under simulated diabetic conditions (8-CPT/Dex). Format: cell-based, mouse. The note with it: for pFoxo1 levels / total Foxo1 protein levels: 300 ppb Compound #43 or 10 nM insulin, 6 hr. The procedure: AML-12 cells were used to investigate whether Compound #43 can regulate Pdk1/Akt/Foxo1 signaling molecules in the liver cells following induction with diabetic stimuli. Amplified AML-12 cells were seeded on 6-well (1×10^6 cells/well) plates and cultured in 10% FBS but ITS/Dex-free DMEM/F12 media for 24 hr. Then these cells were washed twice with PBS to remove residual sera, and serum-starved in plain DMEM/F12 media overnight. These serum-starved AML12 cells were treated with the diabetic stimuli 8-CPT (0.1 mM) and Dex (0.5 μM) in combination, without (Control group) or with 10 nM insulin or Compound #43 (300 ppb) in serum-free plain DMEM/F12 media for 60 minutes, 90 minutes, and 6 hr, respectively.
After the above described treatments, cultured HepG2 and AML-12 cells were rinsed twice with ice-cold PBS and lysed in ice-cold RIPA buffer containing complete proteinase and phosphatase inhibitors (Thermo-Fisher Scientific, Waltham, Mass.) on ice for 30 min. Cell lysates were collected using a cell scraper and transfer pipette, and then centrifuged at 12000×g for 30 min at 4° C. to remove the DNA pellet and obtain the protein extract. Protein levels in the supernatant of these cell lysates were determined using the Pierce Micro-BCA protein assay kit (Thermo Scientific-Piece Biotechnology, Rockford, Ill.) according to the manufacturer's protocol.
One hundred micrograms of liver tissue proteins or five micrograms of total proteins from control- and compound(s)-treated HepG2 or AML-12 cells were subjected to SDS-PAGE gel separation and then transferred to PVDF membranes, as described previously (Reddy et al. 2008 Science). Membranes were blocked in a phosphate-buffered saline (PBS) containing 5% (w/v) of bovine serum albumin (Sigma, St. Louis, Mo.) and incubated with specific primary antibodies followed by the incubation with HRP-conjugated anti-mouse or anti-rabbit secondary antibodies (1:5000 dilution, Cell Signaling Inc.). All primary antibodies except Gapdh (Li-COR, Lincoln, Nebr.) were purchased from Cell Signaling Inc. Positive signals on the membrane blots were detected using the Amersham's enhanced chemiluminescence Western Blotting Prime Detection reagents (GE Healthcare Lifescience, Pittsburgh, Pa.). Images of these luminescence signals on the membrane blots were captured using the LI-COR Odyssey Fc Image system (Lincoln, Nebr.). The same membrane blot was stripped and re-blotted with another antibody as described in the GE WB ECL-prime-detection protocol (GE healthcare Lifescience, Pittsburgh, Pa.). Protein band densities in the Western blots were determined using the NIH ImageJ software and then normalized by Gapdh or Actb/ACTB level in each sample. Data are presented as mean±SEM of three samples per each group.

Experiment [2] deals with AML-12 cells. Put plainly: Glucose uptake assay in AML-12 cells. The class given is cell-based, mouse. The procedure: Equal numbers of amplified AML-12 cells were seeded on 96 well plates (1.5×10^5/well) and cultured in 10% FBS but ITS/Dex-free DMEM/F12 media overnight. Then these cells were washed twice with PBS (to remove any potential residual sera), and serum-starved in plain DMEM/F12 media overnight. These serum-starved AML-12 cells were treated without (basal), with insulin (10 and 100 nM) or Compound #43 (150, 300 and 600 ppb) in glucose/phenol red-free DMEM media at 37° C. for 1.5 hr. After treatment, media was removed and cells were washed once with PBS and incubated with 1 mM 2-deoxyglucose (2DG) at room temperature for 30 min. The 2DG-treated cells were then subjected to glucose uptake measurement using Promega's Glucose Uptake-Glo Assay kit, according to the manufacturer's protocol. Luminescent signals were recorded using a Bio-Tek luminometer.

Experiment [3] deals with T1, native insulin receptor (Insr) (Rattus norvegicus, UniProt P15127).
T1 construct: native insulin receptor proteins, containing both alpha and beta subunits; purchased Sigma I9266; host or cells: purified from rat liver tissue
Put plainly: In vitro cell-free phosphorylation of native insulin receptor. Format: biochemical. The procedure: In vitro phosphorylation of Insr was performed according to Sigma's protocol with the following modifications. In brief, 10 μl of native insulin receptor solution containing 0.8 μl of original native INSR stock solution (Sigma, Catalog #I9266; diluted in enzyme dilution buffer containing 50 mM HEPES, pH 7.6, 150 mM NaCl and 0.1% Triton X-100) were incubated with equal volume of solutions containing insulin (Sigma), DMSO (Compound #43 solvent), Compound #43 or Compound #68 (diluted in 50 mM HEPES, pH 7.6 and 100 μg/ml bovine serum albumin) on ice for 30 min. Then 20 μl of 2× kinase buffer containing 0.2 mM ATP, 50 mM HEPES, pH 7.6, 50 mM MgCl2 and 4 mM MnCl2 were added to the above reactions, mixed and incubated on ice for 45 minutes.
Five microliters of the above reactions were immediately subjected to Western blot analysis using specific antibodies against phosphorylated tyrosine residues at 1146, 1150 and 1151 of Insrβ proteins (Cell Signaling Inc.). Protein band density was determined using the NIH Image J software.

T1 sequence (P15127 764-1383 limits assumed): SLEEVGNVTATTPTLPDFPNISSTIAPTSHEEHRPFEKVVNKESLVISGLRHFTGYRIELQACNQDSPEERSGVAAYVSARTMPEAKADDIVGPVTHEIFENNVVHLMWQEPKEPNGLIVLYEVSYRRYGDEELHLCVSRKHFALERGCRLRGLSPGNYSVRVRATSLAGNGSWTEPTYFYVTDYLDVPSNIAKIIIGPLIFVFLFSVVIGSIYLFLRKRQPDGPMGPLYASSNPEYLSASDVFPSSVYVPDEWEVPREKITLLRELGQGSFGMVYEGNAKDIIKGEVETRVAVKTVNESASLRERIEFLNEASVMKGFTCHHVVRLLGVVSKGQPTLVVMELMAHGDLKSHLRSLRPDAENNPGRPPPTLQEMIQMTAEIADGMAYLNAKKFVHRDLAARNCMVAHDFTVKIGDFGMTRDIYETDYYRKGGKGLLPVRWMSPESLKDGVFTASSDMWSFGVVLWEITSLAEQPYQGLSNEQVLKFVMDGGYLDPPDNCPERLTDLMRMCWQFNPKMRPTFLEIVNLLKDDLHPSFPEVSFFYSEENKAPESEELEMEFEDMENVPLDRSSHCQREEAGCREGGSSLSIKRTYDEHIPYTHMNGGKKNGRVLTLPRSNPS
T1 sequence (P15127 27-759 partner limits assumed): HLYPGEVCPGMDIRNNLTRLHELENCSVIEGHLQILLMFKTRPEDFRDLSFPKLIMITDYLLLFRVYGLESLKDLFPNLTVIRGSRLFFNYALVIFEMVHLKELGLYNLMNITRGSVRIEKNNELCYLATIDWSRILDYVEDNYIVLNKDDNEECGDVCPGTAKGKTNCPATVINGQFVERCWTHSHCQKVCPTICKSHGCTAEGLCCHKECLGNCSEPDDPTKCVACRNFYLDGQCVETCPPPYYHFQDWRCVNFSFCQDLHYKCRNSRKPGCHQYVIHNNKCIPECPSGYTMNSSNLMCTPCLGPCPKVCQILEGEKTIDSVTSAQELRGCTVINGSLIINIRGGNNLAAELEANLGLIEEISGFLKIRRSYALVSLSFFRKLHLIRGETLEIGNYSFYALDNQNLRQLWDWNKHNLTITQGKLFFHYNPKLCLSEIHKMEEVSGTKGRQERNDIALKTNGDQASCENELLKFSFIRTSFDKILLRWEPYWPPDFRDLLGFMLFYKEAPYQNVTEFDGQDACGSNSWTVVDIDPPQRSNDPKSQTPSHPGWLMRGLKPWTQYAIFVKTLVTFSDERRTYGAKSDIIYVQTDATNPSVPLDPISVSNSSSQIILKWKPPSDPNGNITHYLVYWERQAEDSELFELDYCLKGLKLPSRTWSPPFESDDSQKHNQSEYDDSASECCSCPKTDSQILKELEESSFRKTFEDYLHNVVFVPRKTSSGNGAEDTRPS

For the molecule `C[Se]C[C@H]1O[C@@H](n2cnc3c(N)ncnc32)C(OC(C)=O)C1OC(C)=O` (stereo partly drawn) [Compound #43, Adenosine, 5′-Se-methyl-5′-selino-, 2′,3′-diacetate], in experiment [1], the pFoxo1 levels result is “significant increase in pFoxo1 levels” and the “total Foxo1 protein levels” value is given as “slight but significant decrease”. The “phosphorylation of Pdk1, Akt and Foxo1” value in experiment [1] (300 ppb, 60 minutes) is “significantly induced the phosphorylation of Pdk1, Akt and Foxo1”. Moreover, in experiment [1] (300 ppb, 90 minutes), the pFoxo1 protein levels entry is “significant increase in pFoxo1 protein levels”; the “pPdk1, pAkt, Akt and Foxo1 protein levels” value is “not significantly altered”. In experiment [2] (150, 300 and 600 ppb, 1.5 hr (FIG. 17)), the “effect on glucose uptake” value is given as “significant increase of glucose uptake”. The “extent of increased glucose uptake” value in experiment [2] (600 ppb, 1.5 hr) is “comparable to 100 nM insulin”. For the same molecule, in experiment [2] (serum-free), the “time to stimulate glucose uptake” value is listed as “less than 1.5 hr”. The “phosphorylation of Insrβ at Y1146/1150/1151” value in experiment [3] (doses of 1.9 and 3.8, cell-free (FIG. 26)) is recorded as “significantly enhance the phosphorylation of Insrβ at Y1146/1150/1151”.

As to “insulin: insulin purchased from Sigma, positive control”, the “phosphorylation of Pdk1, Akt and Foxo1” value in experiment [1] (10 nM insulin, 60 and 90 minutes) is “enhanced the phosphorylation of Pdk1, Akt and Foxo1”. Also, in experiment [1], the pFoxo1 levels entry was “increased pFoxo1” and the “total Foxo1 protein levels” value was “slightly decreased total Foxo1 protein levels”. Moreover, in experiment [2] (10 nM insulin, 1.5 hr), the “effect on glucose uptake” value was “did not enhance the glucose uptake”. Further, in experiment [2] (100 nM insulin, 1.5 hr), the “effect on glucose uptake” value is reported as “significant increase of glucose uptake”. For the same molecule, in experiment [3] (insulin 0.5 μM, cell-free (FIG. 26)), the “phosphorylation of Insrβ at Y1146/1150/1151” value was “able to induce the phosphorylation of Insrβ at Y1146/1150/1151”.

Values taken from US11613552B2, “Pharmaceutical agents, compositions, and methods relating thereto” (Alltech, Inc., priority 2017, dated 2023).
